Experimental data from patent US20040166508A1, “Analytical platform and detection method with the analytes to be determined in a sample as immobilized specific binding partners, optionally after fractionation of said sample” (priority 2002, published 2004).

System: pErk2 (Phospho-p44/42 MAP kinase (Thr202/Tyr204))
Assay: Detection of pErk2 (phospho-p44/42 MAP kinase) in immobilized Jurkat cell lysates (antibody A3)
Format: cell-based, human
Conditions: Jurkat cells treated with 10 μM for 180 min
Method: Human T-cell cultures (Jurkat, DMZ # ACC282) are utilized for the detection of biologically relevant protein analytes in “immobilization samples”. These cells are cultivated at 37° C. in a solution containing RPMI 1640, 10% FCS (fetal calf serum), 2 mM glutamine, 50 U/ml penicillin, 50 μg/ml streptamycine (cell density at about 0.5×10^6-1.0×10^6 cells/ml). […] A cell culture, which is similar to the one described above but not treated with antibodies, is used as a comparison sample and shall serve as a negative control in the analytical detection method. […] The cells here are simply separated from the medium, without damage to the cells. The supernatant is then decanted, and lysis buffer (7 M urea, 2 M thiourea, 4% CHAPS, 1% DTT, 4 mM spermidine and Complete (protease inhibitor, Roche AG, 1 tablet/50 ml) is added, the total protein concentration being adjusted to about 10 mg/ml. Thereby, all protein-containing cell components are denatured spontaneously and completely and solubilized. The samples obtained by the preparation steps described above are again diluted by a factor of 10 to a total protein concentration of about 1 mg/ml, and are then deposited in discrete measurement areas for generating an array of measurement areas on the evanescent field sensor platform provided with the adhesion-promoting layer. […]

CN[C@@H]1C[C@H]2O[C@@](C)([C@@H]1OC)n1c3ccccc3c3c4c(c5c6ccccc6n2c5c31)C(=O)NC4 [staurosporin, staurosporine]
pErk2 signal of the nonstimulated control sample compared with the treated sample: only slightly higher
